One assay has as its target T1, PKC epsilon (Homo sapiens, UniProt Q02156).
T1 construct: purchased Invitrogen P2282
T1 sequence (Q02156 1-737): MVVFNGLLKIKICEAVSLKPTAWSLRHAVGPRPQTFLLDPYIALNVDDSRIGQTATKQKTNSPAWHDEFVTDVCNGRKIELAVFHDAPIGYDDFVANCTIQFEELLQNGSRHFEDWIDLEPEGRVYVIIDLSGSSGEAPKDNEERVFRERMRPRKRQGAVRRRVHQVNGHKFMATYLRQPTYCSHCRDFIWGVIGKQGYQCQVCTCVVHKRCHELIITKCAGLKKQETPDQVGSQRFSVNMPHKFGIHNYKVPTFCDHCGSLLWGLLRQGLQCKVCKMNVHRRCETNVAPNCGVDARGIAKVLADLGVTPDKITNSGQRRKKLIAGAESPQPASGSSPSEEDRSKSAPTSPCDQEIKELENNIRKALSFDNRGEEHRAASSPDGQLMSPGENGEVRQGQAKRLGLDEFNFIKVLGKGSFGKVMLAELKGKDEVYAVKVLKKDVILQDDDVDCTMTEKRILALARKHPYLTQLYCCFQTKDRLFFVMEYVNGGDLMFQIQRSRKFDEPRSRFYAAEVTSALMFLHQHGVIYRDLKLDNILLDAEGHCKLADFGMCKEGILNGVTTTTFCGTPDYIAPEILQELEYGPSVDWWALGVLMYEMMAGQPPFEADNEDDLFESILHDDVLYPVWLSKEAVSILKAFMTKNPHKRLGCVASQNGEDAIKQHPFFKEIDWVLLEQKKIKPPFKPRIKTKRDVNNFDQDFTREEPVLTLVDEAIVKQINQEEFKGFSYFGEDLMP
In words: Biochemical assay for PKC epsilon (fluorescence polarization, Protein Kinase C Assay Kit, Red). As to conditions: read-out: IC50 μM PKCε. The essentials: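 Read-out was fluorescence-polarization competition between phosphorylated substrate and a rhodamine PKC tracer for an anti-phosphoserine antibody, added with EDTA stop after an 80 min room-temperature kinase reaction with ATP and protein substrate (Mg2+/Ca2+ buffer). Enzyme (10 ng/ml final) was preincubated with compound for 30 min.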
For orientation: Fluorescence polarisation rises when a labelled molecule tumbles more slowly, as on binding a larger partner.

A further assay deals with T2, human ROCKα/ROCKII mix (Homo sapiens, UniProt O75116).
T2 construct: purchased Upstate Biotechnology 14-451
Kind of assay: Biochemical assay for ROCK (fluorescence polarization, ROCK IMAP Kit).

Where a name gives a salt, the structure may show the parent alone. Some results are limits rather than exact numbers.

T2 sequence (O75116 11-552 limits assumed): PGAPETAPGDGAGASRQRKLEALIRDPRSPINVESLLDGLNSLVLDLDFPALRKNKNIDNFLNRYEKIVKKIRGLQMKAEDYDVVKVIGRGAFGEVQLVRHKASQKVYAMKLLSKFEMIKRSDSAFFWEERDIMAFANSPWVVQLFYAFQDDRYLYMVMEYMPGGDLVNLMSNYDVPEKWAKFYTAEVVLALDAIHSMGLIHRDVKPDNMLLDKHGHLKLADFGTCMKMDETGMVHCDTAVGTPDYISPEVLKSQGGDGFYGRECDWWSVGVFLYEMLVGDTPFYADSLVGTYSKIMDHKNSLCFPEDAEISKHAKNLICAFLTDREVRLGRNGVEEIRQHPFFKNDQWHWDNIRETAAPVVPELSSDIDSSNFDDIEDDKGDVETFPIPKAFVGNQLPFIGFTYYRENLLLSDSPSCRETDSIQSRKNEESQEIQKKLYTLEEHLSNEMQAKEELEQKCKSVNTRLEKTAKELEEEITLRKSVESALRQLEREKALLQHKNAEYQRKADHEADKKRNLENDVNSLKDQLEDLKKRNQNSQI

Turning to `N[C@@H](CNC(=O)C1(c2ccc(F)cc2)CCCC1)c1ccc(C(=O)Nc2ccncc2)cc1` [Compound 418, 4-((R)-1-Amino-2-{[1-(4-fluoro-phenyl)-cyclopentanecarbonyl]-amino}-ethyl)-N-pyridin-4-yl-benzamide dihydrochloric acid salt], the IC50 (as a rule, the concentration needed to halve the response being measured) at PKC epsilon is 0.05 to 0.5 µM; against human ROCKα/ROCKII mix, 0.5 to 5 µM.
For `CC(C)(C(=S)NCC(N)c1ccc(C(=O)Nc2ccncc2)cc1)c1ccc(F)cc1` (stereo not shown) [Compound 419, 4-{1-Amino-2-[2-(4-fluoro-phenyl)-2-methyl-thiopropionylamino]-ethyl}-N pyridin-4-yl-benzamide dihydrochloric acid salt] the same measures were less than 0.05 µM and 0.05 to 0.5 µM.
In the same order, the values of `Cc1ccccc1CC(=O)N(C)CC(N)c1ccc(C(=O)Nc2ccncc2)cc1` (stereo not shown) [Compound 422, 4-{1-Amino-2-[methyl-(2-o-tolyl-acetyl)-amino]-ethyl}-N-pyridin-4-yl-benzamide] are 5 to 50 µM and 0.5 to 5 µM.
Take `Cc1cccc(CC(=O)N(C)CC(N)c2ccc(C(=O)Nc3ccncc3)cc2)c1` (stereo not shown) [Compound 423, 4-{1-Amino-2-[methyl-(2-m-tolyl-acetyl)-amino]-ethyl}-N-pyridin-4-yl-benzamide]: the IC50 was in the range of 5 to 50 µM at PKC epsilon and 0.5 to 5 µM against human ROCKα/ROCKII mix.
In the same order, the values of `Cc1ccc(CC(=O)N(C)CC(N)c2ccc(C(=O)Nc3ccncc3)cc2)cc1` (stereo not shown) [Compound 424, 4-{1-Amino-2-[methyl-(2-p-tolyl-acetyl)-amino]-ethyl}-N-pyridin-4-yl-benzamide] are 5 to 50 µM and 0.5 to 5 µM.
In the same order, the values of `COc1ccccc1CC(=O)N(C)CC(N)c1ccc(C(=O)Nc2ccncc2)cc1` (stereo not shown) [Compound 425, 4-(1-Amino-2-{[2-(2-methoxy-phenyl)-acetyl]-methyl-amino}-ethyl)-N-pyridin-4-yl-benzamide] are 5 to 50 µM and 0.5 to 5 µM.
Consider `COc1cccc(CC(=O)N(C)CC(N)c2ccc(C(=O)Nc3ccncc3)cc2)c1` (stereo not shown) [Compound 426, 4-(1-Amino-2-{[2-(3-methoxy-phenyl)-acetyl}-methyl-amino}-ethyl)-N-pyridin-4-yl-benzamide], for which the IC50 on PKC epsilon was 5 to 50 µM; against human ROCKα/ROCKII mix, 0.05 to 0.5 µM.
For the compound `COc1ccc(CC(=O)N(C)CC(N)c2ccc(C(=O)Nc3ccncc3)cc2)cc1` (stereo not shown) [Compound 427, 4-(1-Amino-2-{[2-(4-methoxy-phenyl)-acetyl]-methyl-amino}-ethyl)-N-pyridin-4-yl-benzamide], the IC50 on PKC epsilon is 5 to 50 µM; against human ROCKα/ROCKII mix it was 0.05 to 0.5 µM.
In the same order, the values of `COc1ccc(C2(C(=O)N(C)CC(N)c3ccc(C(=O)Nc4ccncc4)cc3)CC2)cc1` (stereo not shown) [Compound 428, 4-(1-Amino-2-{[1-(4-methoxy-phenyl)-cyclopropanecarbonyl]-methyl-amino}-ethyl)-N-pyridin-4-yl-benzamide] are 5 to 50 µM and 0.5 to 5 µM.
With `COc1ccc(CC(=O)N(C)CC(N)c2ccc(C(=O)Nc3ccncc3)cc2)c(OC)c1` (stereo not shown) [Compound 430, 4-(1-Amino-2-{[2-(2,4-dimethoxy-phenyl)-acetyl]-methyl-amino}-ethyl)-N-pyridin-4-yl-benzamide], the IC50 was 5 to 50 µM at PKC epsilon and 0.05 to 0.5 µM against human ROCKα/ROCKII mix.
For `CN(CC(N)c1ccc(C(=O)Nc2ccncc2)cc1)C(=O)C1(c2ccc(F)cc2)CCC1` (stereo not shown) [Compound 474, 4-(1-Amino-2-{[1-(4-fluoro-phenyl)-cyclobutanecarbonyl]-methyl-amino}-ethyl)-N-pyridin-4-yl-benzamide] the same measures were 0.5 to 5 µM and 0.5 to 5 µM.
In the same order, the values of `CN(CC(N)c1ccc(C(=O)Nc2ccncc2)cc1)C(=O)C1(c2ccc(F)cc2)CCCC1` (stereo not shown) [Compound 475, 4-(1-Amino-2-{[1-(4-fluoro-phenyl)-cyclopentanecarbonyl]-methyl-amino}-ethyl)-N-pyridin-4-yl-benzamide] are 0.5 to 5 µM and 0.5 to 5 µM.
As to `CN(CC(N)c1ccc(C(=O)Nc2ccncc2)cc1)C(=O)Cc1cccc(F)c1F` (stereo not shown) [Compound 477, 4-(1-Amino-2-{[2-(2,3-difluoro-phenyl)-acetyl]-methyl-amino}-ethyl)-N-pyridin-4-yl-benzamide], the IC50 on PKC epsilon is 5 to 50 µM; at human ROCKα/ROCKII mix, 0.5 to 5 µM.
In the same order, the values of `CN(CC(N)c1ccc(C(=O)Nc2ccncc2)cc1)C(=O)Cc1cc(F)ccc1F` (stereo not shown) [Compound 478, 4-(1-Amino-2-{[2-(2,5-difluoro-phenyl)-acetyl]-methyl-amino}-ethyl)-N-pyridin-4-yl-benzamide] are 5 to 50 µM and 0.5 to 5 µM.
For `CN(CC(N)c1ccc(C(=O)Nc2ccncc2)cc1)C(=O)Cc1ccc(F)cc1F` (stereo not shown) [Compound 479, 4-(1-Amino-2-{[2-(2,4-difluoro-phenyl)-acetyl]-methyl-amino}-ethyl)-N-pyridin-4-yl-benzamide] the same measures were 5 to 50 µM and 0.5 to 5 µM.
In the same order, the values of `CN(CC(N)c1ccc(C(=O)Nc2ccncc2)cc1)C(=O)C1(c2ccc(F)cc2F)CC1` (stereo not shown) [Compound 481, 4-(1-Amino-2-{[1-(2,4-difluoro-phenyl)-cyclopropanecarbonyl]-methyl-amino}-ethyl)-N-pyridin-4-yl-benzamide] are 5 to 50 µM and 0.5 to 5 µM.
For `CN(CC(N)c1ccc(C(=O)Nc2ccncc2)cc1)C(=O)C(C)(C)c1ccc(F)c(F)c1` (stereo not shown) [Compound 485, 4-(1-Amino-2-{[2-(3,4-difluoro-phenyl)-2-methyl-propionyl]-methyl-amino}-ethyl)-N-pyridin-4-yl-benzamide], the IC50 on PKC epsilon and on human ROCKα/ROCKII mix was 0.5 to 5 µM each time.
Regarding `CN(CC(N)c1ccc(C(=O)Nc2ccncc2)cc1)C(=O)C1(c2ccc(F)c(F)c2)CC1` (stereo not shown) [Compound 486, 4-(1-Amino-2-{[1-(3,4-difluoro-phenyl)-cyclopropanecarbonyl]-methyl-amino}-ethyl)-N-pyridin-4-yl-benzamide], the IC50 at PKC epsilon and against human ROCKα/ROCKII mix was 0.5 to 5 µM throughout.
For the compound `CN(CC(N)c1ccc(C(=O)Nc2ccncc2)cc1)C(=O)C1(c2ccc(F)c(F)c2)CCC1` (stereo not shown) [Compound 487, 4-(1-Amino-2-{[1-(3,4-difluoro-phenyl)-cyclobutanecarbonyl]-methyl-amino}-ethyl)-N-pyridin-4-yl-benzamide], the IC50 at PKC epsilon and at human ROCKα/ROCKII mix was 0.5 to 5 µM throughout.
For the compound `CN(CC(N)c1ccc(C(=O)Nc2ccncc2)cc1)C(=O)C1(c2ccc(F)c(F)c2)CCCC1` (stereo not shown) [Compound 488, 4-(1-Amino-2-{[1-(3,4-difluoro-phenyl)-cyclopentanecarbonyl]-methyl-amino}-ethyl)-N-pyridin-4-yl-benzamide], the IC50 at PKC epsilon and against human ROCKα/ROCKII mix was 0.5 to 5 µM throughout.
Consider `CN(CC(N)c1ccc(C(=O)Nc2ccncc2)cc1)C(=O)Cc1ccc(Cl)cc1Cl` (stereo not shown) [Compound 490, 4-(1-Amino-2-{[2-(2,4-dichloro-phenyl)-acetyl]-methyl-amino}-ethyl)-N-pyridin-4-yl-benzamide], for which the IC50 at PKC epsilon was 5 to 50 µM; against human ROCKα/ROCKII mix, 0.5 to 5 µM.
Regarding `CN(CC(N)c1ccc(C(=O)Nc2ccncc2)cc1)C(=O)Cc1ccc(Cl)c(Cl)c1` (stereo not shown) [Compound 491, 4-(1-Amino-2-{[2-(3,4-dichloro-phenyl)-acetyl]-methyl-amino}-ethyl)-N-pyridin-4-yl-benzamide], the figures for the IC50 at PKC epsilon and against human ROCKα/ROCKII mix were 5 to 50 µM and 0.5 to 5 µM, respectively.
For `CN(CC(N)c1ccc(C(=O)Nc2ccncc2)cc1)C(=O)C1(c2ccc(Cl)c(Cl)c2)CC1` (stereo not shown) [Compound 493, 4-(1-Amino-2-{[1-(3,4-dichloro-phenyl)-cyclopropanecarbonyl]-methyl-amino}-ethyl)-N-pyridin-4-yl-benzamide] the same measures were 5 to 50 µM and 0.5 to 5 µM.
For `CN(CC(N)c1ccc(C(=O)Nc2ccncc2)cc1)C(=O)C1(c2ccc(Cl)c(Cl)c2)CCC1` (stereo not shown) [Compound 494, 4-(1-Amino-2-{[1-(3,4-dichloro-phenyl)-cyclobutanecarbonyl]-methyl-amino}-ethyl)-N-pyridin-4-yl-benzamide], the figures for the IC50 at PKC epsilon and against human ROCKα/ROCKII mix were 5 to 50 µM and 0.5 to 5 µM, respectively.
In the same order, the values of `CN(CC(N)c1ccc(C(=O)Nc2ccncc2)cc1)C(=O)C1(c2ccc(Cl)cc2Cl)CC1` (stereo not shown) [Compound 495, 4-(1-Amino-2-{[1-(2,4-dichloro-phenyl)-cyclopropanecarbonyl]-methyl-amino}-ethyl)-N-pyridin-4-yl-benzamide] are 5 to 50 µM and 0.5 to 5 µM.
Consider `CN(CC(N)c1ccc(C(=O)Nc2ccncc2)cc1)C(=O)Cc1c(F)cccc1Cl` (stereo not shown) [Compound 496, 4-(1-Amino-2-{[2-(2-chloro-6-fluoro-phenyl)-acetyl]-methyl-amino}-ethyl)-N-pyridin-4-yl-benzamide], for which the results for the IC50 on PKC epsilon and on human ROCKα/ROCKII mix were 5 to 50 µM and 0.5 to 5 µM, respectively.

(Values after patent US20100168102A9, “Amide Derivatives as Kinase Inhibitors” (Devgen NV, priority 2005, published 2010).)
